Source: article PMC1851987, “Identification of the Endogenous Key Substrates of the Human Organic Cation Transporter OCT2 and Their Implication in Function of Dopaminergic Neurons” (PLoS ONE, 2007)
Positions count from the first letter of the chain named. Marks after values point to notes of the source that are not given here.

Assays:
OCT2 variant A270S = target: T1, OCT2 variant A270S (Homo sapiens, UniProt O15244); test: Specific uptake into HEK-293 cells transfected with OCT2 variant A270S
T1 sequence (O15244 1-555): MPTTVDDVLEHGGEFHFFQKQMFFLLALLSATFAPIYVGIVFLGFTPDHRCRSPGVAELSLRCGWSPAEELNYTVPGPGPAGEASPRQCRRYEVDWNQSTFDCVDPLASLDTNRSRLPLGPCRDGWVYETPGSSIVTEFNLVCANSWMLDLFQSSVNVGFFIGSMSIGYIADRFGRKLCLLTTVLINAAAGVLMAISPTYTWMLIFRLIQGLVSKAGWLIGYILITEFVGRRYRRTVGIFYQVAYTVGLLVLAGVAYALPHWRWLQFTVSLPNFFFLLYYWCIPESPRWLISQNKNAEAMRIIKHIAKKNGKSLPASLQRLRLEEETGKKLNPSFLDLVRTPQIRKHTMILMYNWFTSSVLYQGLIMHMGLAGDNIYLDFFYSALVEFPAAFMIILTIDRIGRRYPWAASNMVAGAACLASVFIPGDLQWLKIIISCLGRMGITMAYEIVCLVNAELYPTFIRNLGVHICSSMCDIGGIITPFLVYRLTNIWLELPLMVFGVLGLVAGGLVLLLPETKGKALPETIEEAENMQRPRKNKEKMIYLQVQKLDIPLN
Method: (§1) The cDNAs encoding the organic cation transporters OCT1 (GenBank accession no. NM_003057), OCT2 (NM_003058), and EMT (NM_021977) were amplified by RT-PCR from human liver, kidney, and placenta total RNA respectively, and subcloned into the eukaryotic expression vector pcDNA3. The cDNA encoding the norepinephrine transporter (SLC6A2) was kindly provided by C. Pifl (University of Vienna).
For uptake experiments, cells were grown on polystyrene dishes of 60 mm diameter to at least 80% confluence. […] Cells were lysed with 1 ml of 4 mmol/l perchloric acid and lysates subjected to LC-MS-MS quantification. Cellular protein content was determined after solubilization of perchloric acid precipitates with 1 ml of […] NaOH using the bicinchoninic assay (BCA Protein Assay Kit, Pierce).
Chromatographic separations were performed on Hypercarb (5 µm, 50×2.1 mm; Thermo Electron), Aquasil C18 (3 µm, 100×4.6 mm; Thermo Electron), or Hilic columns (5 µm, 100×3.0 mm; Waters Atlantis) by isocratic or gradient elution using 0.1% aqueous formic acid (A) and acetonitrile or methanol (B) as solvent system. For quantification, SRM transitions of a precursor ion [M+H]^+ into a specific fragment ion (peak area ratios relative to IS) were recorded in positive ESI mode at 1.0–1.5 mTorr collision pressure and 10–40 eV collision energy. […]

OCT2 variant R400C = target: T2, OCT2 variant R400C (Homo sapiens, UniProt O15244, R400C/S270A); test: Specific uptake into HEK-293 cells transfected with OCT2 variant R400C (mutant 400C); details: for Clin: incubation with 10 µmol/l
T2 sequence (O15244 1-555 S270A/R400C): T1 sequence (O15244 1-555) with S270A, R400C
Method: as §1
For uptake experiments, cells were grown on polystyrene dishes of 60 mm diameter to at least 80% confluence. Prior to addition of test compounds, culture medium was replaced by 3 ml HEPES-modified Krebs buffer (140.0 mmol/l NaCl, 5.0 mmol/l KCl, 2.0 mmol/l CaCl2, 1.0 mmol/l MgCl2, 10.0 mmol/l HEPES, and 5.0 mmol/l D-glucose, adjusted to pH 7.40), and cells were left to equilibrate for 60 min at 37°C. Uptake was terminated after indicated times by washing cells with ice-cold buffer. Cells were lysed with 1 ml of 4 mmol/l perchloric acid and lysates subjected to LC-MS-MS quantification. Cellular protein content was determined after solubilization of perchloric acid precipitates with 1 ml of […] NaOH using the bicinchoninic assay (BCA Protein Assay Kit, Pierce).
Chromatographic separations were performed on Hypercarb (5 µm, 50×2.1 mm; Thermo Electron), Aquasil C18 (3 µm, 100×4.6 mm; Thermo Electron), or Hilic columns (5 µm, 100×3.0 mm; Waters Atlantis) by isocratic or gradient elution using 0.1% aqueous formic acid (A) and acetonitrile or methanol (B) as solvent system. For quantification, SRM transitions of a precursor ion [M+H]^+ into a specific fragment ion (peak area ratios relative to IS) were recorded in positive ESI mode at 1.0–1.5 mTorr collision pressure and 10–40 eV collision energy. External calibration curves were obtained from serial dilutions of the analyte in 4 mmol/l HClO4 by linear or logistic regression. Detection limit was at least 0.001 nmol/mg protein.
Uptake versus time data were fitted by linear one-compartment kinetics: cin(t) = cin,∞·(1−e^−kex·t), where cin(t) represents intracellular free substrate concentration after time t (pmol/mg protein), cin,∞ extrapolated maximal intracellular free substrate concentration (pmol/mg protein), and kex efflux rate constant (1/min). Influx clearance was calculated as CLin = cin,∞/cex·kex (µl/mg protein/min), with cex extracellular free substrate concentration (pmol/µl). Statistical significance of differences between two treatments was evaluated by the unpaired two-tailed t-test or Mann-Whitney U-test, differences between more than two treatments by one-way ANOVA or Kruskal-Wallis test, as applicable. P<0.05 was considered statistically significant.

[1] = target: T3, norepinephrine transporter (NET) (Homo sapiens, UniProt P23975); test: Specific uptake into norepinephrine transporter (NET) transfected HEK-293 cells; type: cell-based; details: 10 µmol/l, 5 min incubation
T3 construct: expressed in transfected cells; host or cells: HEK-293, stably transfected; cDNA from C; Pifl (University of Vienna)
Description: Pifl (University of Vienna).
1. Burnette WB, Bailey MD, Kukoyi S, Blakely RD, Trowbridge CG, et al. (1996) Human norepinephrine transporter kinetics using rotating disk electrode voltammetry. Anal Chem 68: 2932–2938. (0.90 MB TIF) Click here for additional data file.

T3 sequence (P23975 whole entry): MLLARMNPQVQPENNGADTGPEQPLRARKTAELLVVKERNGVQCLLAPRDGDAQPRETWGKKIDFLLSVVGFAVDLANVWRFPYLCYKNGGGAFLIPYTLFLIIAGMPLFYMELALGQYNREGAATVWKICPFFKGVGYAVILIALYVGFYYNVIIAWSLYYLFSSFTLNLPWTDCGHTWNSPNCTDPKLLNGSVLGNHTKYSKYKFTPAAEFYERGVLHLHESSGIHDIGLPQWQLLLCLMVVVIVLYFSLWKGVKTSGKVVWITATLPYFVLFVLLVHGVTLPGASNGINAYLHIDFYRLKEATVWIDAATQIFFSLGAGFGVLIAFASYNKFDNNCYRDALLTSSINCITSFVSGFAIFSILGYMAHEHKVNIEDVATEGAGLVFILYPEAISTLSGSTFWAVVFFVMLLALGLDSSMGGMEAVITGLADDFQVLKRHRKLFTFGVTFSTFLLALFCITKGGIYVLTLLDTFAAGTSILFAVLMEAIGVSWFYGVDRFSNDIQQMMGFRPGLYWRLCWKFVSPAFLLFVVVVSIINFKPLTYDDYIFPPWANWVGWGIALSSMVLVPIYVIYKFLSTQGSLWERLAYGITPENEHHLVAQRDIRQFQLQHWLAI

| Clin (OCT2 variant A270S; incubation with 10 µmol/l, mean (s.e.m.)) | Vmax (OCT2 variant R400C; 1 min of loading, mean (s.e.m.), listed as CHP) | clearance (Clin) of 400C relative to the 400R reference (OCT2 variant R400C; 400C vs wild-type 400R) [%] | transport efficiency (Vmax/Km) of 400C relative to the 400R reference (OCT2 variant R400C; 400C vs wild-type 400R) [%] | Clin (OCT2 variant R400C; mean (s.e.m.)) | Clin (OCT2 variant R400C; mean (s.e.m.), listed as CHP) | SMILES | substrate of NET (specific uptake) [1] | Km at 1 min (OCT2 variant A270S; human, pH 7.4) [µM] | Km at 1 min (OCT2 variant R400C; human, pH 7.4) [µM] |
| --- | --- | --- | --- | --- | --- | --- | --- | --- | --- |
| 25.5 (3.3) µl/mg/min | 1.0 (0.1) nmol/mg/min | 70 | 48 | 17.6 (1.5)^# µl/mg/min | 17.6 (1.5) µl/mg/min | O=C1NC(Cc2c[nH]cn2)C(=O)N2CCCC12 (stereo not shown) [cyclo(his-pro), histidyl-proline diketopiperazine] | no substrates of NET | – | – |
| – | – | – | – | – | – | CC1NCCc2cc(O)c(O)cc21 (stereo not shown) [salsolinol] | no substrates of NET | 132 | 123 |
